The values below come from ChEMBL document CHEMBL4610010, “Metachromins X and Y from a marine sponge Spongia sp. and their effects on cell cycle progression” (Bioorg Med Chem, 2020).

Experiment [1] has as its system HeLa/Fucci2. Briefly: Antiproliferative activity against human HeLa/Fucci2 cells assessed as inhibition of cell viability incubated for 3 days by MTT assay. The class given is functional, cell-based. The note with it: HeLa/Fucci2, 72 h. A general note: Tetrazolium assays rely on reduction of a dye to a coloured formazan, in cell work by metabolically active cells.

Experiment [2] deals with HeLa/Fucci2. The experiment can be described thus: Induction of cell cycle arrest in human HeLa/Fucci2 cells assessed as accumulation at S/G2/M phase at 56 uM measured after 68 hrs by Time-lapse imaging analysis based fluorescent microscopic method. The class given is functional.
Experiment [3] concerns HeLa/Fucci2. Briefly: Induction of cell cycle arrest in human HeLa/Fucci2 cells assessed as accumulation at S/G2/M phase at 56 uM incubated for 3 days by flow cytometric analysis (reference value: 20.4%). The class given is functional. (In general: Flow cytometry measures light scatter and fluorescence of single cells or particles in a stream.)
Experiment [4] relates to HeLa/Fucci2. The experiment can be described thus: Induction of cell cycle arrest in human HeLa/Fucci2 cells assessed as accumulation at G1 phase at 56 uM incubated for 3 days by flow cytometric analysis (reference value: 39.4%). It is filed as functional.
In experiment [5] the test system is HeLa/Fucci2. Briefly: Induction of cell cycle arrest in human HeLa/Fucci2 cells assessed as accumulation at G1/S phase at 56 uM incubated for 3 days by flow cytometric analysis (reference value: 40.2%). It is filed as functional.

Where a name gives a salt, the structure may show the parent alone. Activity calls are given as the source filed them. No cut-off for these calls is given here.

Turning to `COc1cc(OC)c2c(c1O)C=C[C@](C)(CC[C@@]1(C)CCC=C(C)[C@H]1C)O2`, the IC50 in the experiment on HeLa/Fucci2 [1] is 89 µM. For the same molecule, in the experiment on HeLa/Fucci2 [2], the outcome was inactive.
The matching figures for `COC1=CC(=O)C(O)=C(C/C=C(\C)CC[C@@]2(C)CCC=C(C)[C@H]2C)C1=O` [METACHROMIN C]: 53 µM and “Active”.
In the case of `COC1=CC(=O)C(O)=C(C/C=C(\C)CCC2=C(C)CCCC2(C)C)C1=O`, the values for the Activity with HeLa/Fucci2 [3], with HeLa/Fucci2 [4] and with HeLa/Fucci2 [5] were 88%, 7.6% and 4.3%, respectively. In addition, in the experiment with HeLa/Fucci2 [1], the 50% inhibitory concentration (IC50) came to 64 µM. In addition, the outcome with HeLa/Fucci2 [2] was Active.
Consider `COC1=CC(=O)C2=C(C=CC(C)(CCC3=C(C)CCCC3(C)C)O2)C1=O` (racemic), for which the Activity in the experiment on HeLa/Fucci2 [3] stood at 55%; in the experiment with HeLa/Fucci2 [4], 21.5%; in the experiment with HeLa/Fucci2 [5], 23.4%. Further, the half-inhibitory concentration (IC50) with HeLa/Fucci2 [1] came out at 76 µM. The outcome in the experiment with HeLa/Fucci2 [2] was inactive.
For the molecule `COc1cccc2c1C(=O)c1c(O)c3c(c(O)c1C2=O)C[C@@](O)(C(=O)CO)C[C@@H]3O[C@H]1C[C@H](N)[C@H](O)[C@H](C)O1` [DOXORUBICIN HYDROCHLORIDE], the concentration for half-maximal inhibition (IC50) in the experiment with HeLa/Fucci2 [1] amounted to 2 µM.
Turning to `COC1=CC(=O)C2=C(C=CC(C)(CC[C@@]3(C)CCC=C(C)[C@H]3C)O2)C1=O` (some centres not stated), in the experiment on HeLa/Fucci2 [1], the IC50 was 73 µM. Also, in the experiment with HeLa/Fucci2 [2], the outcome was inactive.

The IC50 is the concentration at which inhibition is half-maximal.
